Values of other authors as cited in Sander's compilation of Henry's law constants (doi:10.1002/cite.330370802).

Assay: Henry solubility constant Hcp at 294 K (mol/(m3 Pa))
Settings: reference: Irmann (1965); cited value
In the case of `FC(F)(F)C(F)(Cl)Cl` [1,1-dichlorotetrafluoroethane], the “Henry solubility constant Hcp at 294 K” value is listed as 5.8e-06.
For `CC(F)F` [1,1-difluoroethane], the “Henry solubility constant Hcp at 294 K” value is given as 0.00048.
For `CC(F)(F)Cl` [1-chloro-1,1-difluoroethane], the “Henry solubility constant Hcp at 294 K” value is given as 0.00019.

Assay: Henry solubility constant Hcp at 303 K (mol/(m3 Pa))
Settings: reference: Irmann (1965); cited value
For `FC(F)=C(F)F` [tetrafluoroethene], the “Henry solubility constant Hcp at 303 K” value is listed as 9.8e-06.

Assay: Henry solubility constant Hcp at 293 K (mol/(m3 Pa))
Settings: reference: Irmann (1965); cited value
For `FC(F)(Cl)C(F)(F)Cl` [1,2-dichlorotetrafluoroethane], the “Henry solubility constant Hcp at 293 K” value is listed as 8.1e-06.

Assay: Henry solubility constant Hcp at 298.15 K (mol/(m3 Pa))
Settings: reference: Irmann (1965); cited value
For `C=CC=C` [1,3-butadiene], the “Henry solubility constant Hcp” value is given as 0.00015.
For `FC(F)(F)CCl` [2-chloro-1,1,1-trifluoroethane], the “Henry solubility constant Hcp” value is given as 0.00037.
For `FC(F)(F)Br` [bromotrifluoromethane], the “Henry solubility constant Hcp” value is listed as 2e-05.
For `CCCl` [chloroethane], the “Henry solubility constant Hcp” value is given as 0.00063.
In the case of `FC(F)(F)C(F)(F)Cl` [chloropentafluoroethane], the “Henry solubility constant Hcp” value is given as 3.2e-06.
For `FC(F)(F)Cl` [chlorotrifluoromethane], the “Henry solubility constant Hcp” value is given as 5.7e-06.
For `FC(F)(Cl)Cl` [dichlorodifluoromethane], the “Henry solubility constant Hcp” value is listed as 2.3e-05.
For `FC(F)(F)F` [tetrafluoromethane], the “Henry solubility constant Hcp” value is listed as 1.9e-06.
In the case of `FC(F)F` [trifluoromethane], the “Henry solubility constant Hcp” value is given as 0.0001.
